Laboratory results published in PubChem BioAssay AID256 (DTP/NCI, 2004).
Where “and” joins values, the source holds several entries; their conditions need not be identical. Equal entries are not always repeated. Inconclusive results and toxic doses are left out.

Test system: CD2F1 mice, L1210 leukemia ip, survival T/C
Assay: NCI In Vivo Anticancer Drug Screen. Data for tumor model L1210 Leukemia (intraperitoneal) in CD2F1 (CDF1) mice
Settings: higher = longer survival
In short: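 Activity against a transplanted murine tumor was judged by comparing the compound group with a vehicle group. The outcome in the treated animals was divided by that in the controls.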

[1] = endpoint: mean survival time, dose: 12.5 mg/kg/injection, schedule: Q01DX009 (ip), vehicle: other
[2] = endpoint: mean survival time, dose: 25.0 mg/kg/injection, schedule: Q01DX009 (ip), vehicle: other
[3] = endpoint: mean survival time, dose: 50.0 mg/kg/injection, schedule: Q01DX009 (ip), vehicle: other
[4] = endpoint: mean survival time, dose: 100.0 mg/kg/injection, schedule: Q01DX009 (ip), vehicle: saline with Tween-80
[5] = endpoint: mean survival time, dose: 100.0 mg/kg/injection, schedule: Q04DX003 (ip), vehicle: saline with Tween-80
[6] = endpoint: mean survival time, dose: 200.0 mg/kg/injection, schedule: Q01DX009 (ip), vehicle: saline with Tween-80
[7] = endpoint: mean survival time, dose: 200.0 mg/kg/injection, schedule: Q04DX003 (ip), vehicle: saline with Tween-80
[8] = endpoint: mean survival time, dose: 400.0 mg/kg/injection, schedule: Q01DX009 (ip), vehicle: saline with Tween-80
[9] = endpoint: mean survival time, dose: 100.0 mg/kg/injection, schedule: Q01DX001 (ip), vehicle: saline with Tween-80
[10] = endpoint: mean survival time, dose: 200.0 mg/kg/injection, schedule: Q01DX001 (ip), vehicle: saline with Tween-80
[11] = endpoint: mean survival time, dose: 12.5 mg/kg/injection, schedule: Q01DX009 (ip), vehicle: saline with Tween-80
[12] = endpoint: mean survival time, dose: 25.0 mg/kg/injection, schedule: Q01DX009 (ip), vehicle: saline with Tween-80
[13] = endpoint: mean survival time, dose: 50.0 mg/kg/injection, schedule: Q01DX009 (ip), vehicle: saline with Tween-80

Compound: COc1ccc(C(=O)c2ncccc2C(=O)O)cc1OC
- T/C [1]: 98 % of control
- T/C [2]: 104 % of control
- T/C [3]: 104 % of control
- T/C (endpoint: mean survival time, dose: 100.0 mg/kg/injection, schedule: Q01DX009 (ip), vehicle: other): 104 % of control
- T/C (endpoint: mean survival time, dose: 200.0 mg/kg/injection, schedule: Q01DX009 (ip), vehicle: other): 105 % of control

Compound: CCCCCCOC(=O)C[n+]1ccc(C(N)=O)cc1
- T/C (endpoint: mean survival time, dose: 100.0 mg/kg/injection, schedule: Q04DX003 (ip), vehicle: saline): 101 % of control
- T/C (endpoint: mean survival time, dose: 200.0 mg/kg/injection, schedule: Q04DX003 (ip), vehicle: saline): 94 % of control

Compound: CCCCCCC(/C=N\N=C\c1ccco1)=C\c1ccccc1
- T/C [4]: 92 % of control
- T/C [5]: 90 % of control
- T/C [6]: 92 % of control
- T/C [7]: 100 % of control
- T/C [8]: 100 % of control
- T/C (endpoint: mean survival time, dose: 400.0 mg/kg/injection, schedule: Q04DX003 (ip), vehicle: saline with Tween-80): 90 % of control

Compound: Cc1cccc(N=Cc2ccccc2O)c1
- T/C [9]: 88 % of control
- T/C [10]: 97 % of control

Compound: O=C1OC(C(Cl)(Cl)Cl)OC1C(Cl)(Cl)Cl (stereo unspecified)
- T/C [9]: 97 % of control

Compound: Oc1c(Br)cc(Br)c(O)c1Br
- T/C [5]: 97 % of control
- T/C [7]: 95 % of control

Compound: C=Cc1ccncc1
- T/C [11]: 91 % of control
- T/C [12]: 95 % of control
- T/C [13]: 98 % of control

Compound: CC[C@@]1(O)C(=O)OCc2c1cc1n(c2=O)Cc2cc3cc(OC)ccc3nc2-1
- T/C (endpoint: mean survival time, dose: 0.78 mg/kg/injection, schedule: Q04DX003 (ip), vehicle: water): 119 % of control
- T/C (endpoint: mean survival time, dose: 3.13 mg/kg/injection, schedule: Q04DX003 (ip), vehicle: water): 155 % of control and 181 % of control
- T/C (endpoint: mean survival time, dose: 6.25 mg/kg/injection, schedule: Q04DX003 (ip), vehicle: water): 113 % of control

Compound: [N-]=[N+]=NC1CC(n2ccc(=O)[nH]c2=O)OC1COC(c1ccccc1)(c1ccccc1)c1ccccc1 (stereo unspecified)
- T/C (endpoint: median survival time, dose: 12.5 mg/kg/injection, schedule: Q01DX005 (ip), vehicle: saline with Tween-80): 96 % of control
- T/C (endpoint: median survival time, dose: 25.0 mg/kg/injection, schedule: Q01DX005 (ip), vehicle: saline with Tween-80): 101 % of control
- T/C (endpoint: median survival time, dose: 50.0 mg/kg/injection, schedule: Q01DX005 (ip), vehicle: saline with Tween-80): 94 % of control
- T/C (endpoint: median survival time, dose: 100.0 mg/kg/injection, schedule: Q01DX005 (ip), vehicle: saline with Tween-80): 95 % of control
- T/C (endpoint: median survival time, dose: 200.0 mg/kg/injection, schedule: Q01DX005 (ip), vehicle: saline with Tween-80): 91 % of control

Compound: COC(=O)C1C2CC(O)C(C2)C1C(=O)OC (stereo unspecified)
- T/C [11]: 97 % of control
- T/C [12]: 101 % of control
- T/C [13]: 104 % of control

Compound: CC(=O)Nc1ccccc1[N+](=O)[O-]
- T/C [9]: 103 % of control
- T/C [10]: 101 % of control
- T/C (endpoint: mean survival time, dose: 400.0 mg/kg/injection, schedule: Q01DX001 (ip), vehicle: saline with Tween-80): 103 % of control

Compound: CCOC(=O)c1cc([N+](=O)[O-])cc([N+](=O)[O-])c1Sc1ncnc2nc[nH]c12
- T/C (endpoint: mean survival time, dose: 0.63 mg/kg/injection, schedule: Q01DX005 (ip), vehicle: other): 98 % of control
- T/C (endpoint: mean survival time, dose: 1.25 mg/kg/injection, schedule: Q01DX005 (ip), vehicle: other): 102 % of control
- T/C (endpoint: mean survival time, dose: 2.5 mg/kg/injection, schedule: Q01DX005 (ip), vehicle: other): 110 % of control
- T/C (endpoint: mean survival time, dose: 5.0 mg/kg/injection, schedule: Q01DX005 (ip), vehicle: other): 100 % of control
- T/C (endpoint: mean survival time, dose: 6.25 mg/kg/injection, schedule: Q01DX005 (ip), vehicle: other): 120 % of control
- T/C (endpoint: mean survival time, dose: 10.0 mg/kg/injection, schedule: Q01DX005 (ip), vehicle: other): 107 % of control
- T/C (endpoint: mean survival time, dose: 18.8 mg/kg/injection, schedule: Q01DX005 (ip), vehicle: other): 112 % of control

Compound: CC1(C)N=C(N)N=C(N)N1c1cccc(OCCOc2ccc(NC(=O)CBr)cc2)c1
- T/C (endpoint: mean survival time, dose: 6.25 mg/kg/injection, schedule: Q01DX009 (ip), vehicle: other): 102 % of control
- T/C [1]: 113 % of control
- T/C [2]: 110 % of control
- T/C [3]: 113 % of control

Compound: C[N+]1(C)CCc2ccccc2C1Cc1ccc(Oc2ccc(CC3c4ccccc4CC[N+]3(C)C)cc2)cc1 (stereo unspecified)
- T/C (endpoint: mean survival time, dose: 0.2 mg/kg/injection, schedule: Q01DX009 (ip), vehicle: saline): 93 % of control
- T/C (endpoint: mean survival time, dose: 0.39 mg/kg/injection, schedule: Q01DX009 (ip), vehicle: saline): 96 % of control

Compound: COC(=O)C(NC(=O)OCc1ccccc1)C(=O)OC
- T/C [4]: 105 % of control
- T/C [6]: 107 % of control
- T/C [8]: 112 % of control
